Results taken from ChEMBL document CHEMBL2034948, “The design, synthesis, and biological evaluation of PIM kinase inhibitors” (Bioorg Med Chem Lett, 2012).

Columns and labels:
Format in all cases: ADME, organism-based
[1] = Oral bioavailability in rat at 5 mg/kg; conditions: in vivo
[2] = Clearance in rat at 5 mg/kg; parameters: dose 5 mg/kg; conditions: in vivo
[3] = Plasma concentration in mouse at 100 mg/kg, po after 1 hr; parameters: dose 100 mg/kg, route oral
[4] = Volume of distribution in rat at 5 mg/kg; parameters: dose 5 mg/kg; conditions: in vivo
Rattus norvegicus [5] = experiment: Dose normalised AUC in rat at 5 mg/kg, iv; parameters: dose 5 mg/kg, route intravenous; conditions: in vivo
[6] = Cmax in rat at 5 mg/kg, iv; parameters: dose 5 mg/kg, route intravenous; conditions: in vivo
[7] = Half life in rat at 5 mg/kg, iv; parameters: dose 5 mg/kg, route intravenous; conditions: in vivo
Rattus norvegicus [8] = experiment: Dose normalised AUC in rat at 5 mg/kg, po; parameters: dose 5 mg/kg, route oral; conditions: in vivo
[9] = Half life in rat at 5 mg/kg, po; parameters: dose 5 mg/kg, route oral; conditions: in vivo
[10] = Plasma concentration in mouse at 100 mg/kg, po after 4 hrs; parameters: dose 100 mg/kg, route oral
[11] = Cmax in rat at 5 mg/kg, po; parameters: dose 5 mg/kg, route oral; conditions: in vivo
Rattus norvegicus [12] = experiment: Dose normalised AUC in rat at […], po; parameters: dose 2.5 mg/kg, route oral; conditions: in vivo
[13] = Half life in rat at […], po; parameters: dose 2.5 mg/kg, route oral; conditions: in vivo
[14] = Cmax in rat at […], po; parameters: dose 2.5 mg/kg, route oral; conditions: in vivo
[15] = Clearance in rat at […]; parameters: dose 2.5 mg/kg; conditions: in vivo
[16] = Volume of distribution in rat at […]; parameters: dose 2.5 mg/kg; conditions: in vivo
Rattus norvegicus [17] = experiment: Dose normalised AUC in rat at […], iv; parameters: dose 2.5 mg/kg, route intravenous; conditions: in vivo
[18] = Cmax in rat at […], iv; parameters: dose 2.5 mg/kg, route intravenous; conditions: in vivo
[19] = Oral bioavailability in rat at […]; conditions: in vivo
[20] = Half life in rat at […], iv; parameters: dose 2.5 mg/kg, route intravenous; conditions: in vivo

SMILES	bioavailability [1]	clearance [2]	concentration at 1 h [3]	Vd [4]	AUC/dose (Rattus norvegicus [5])	Cmax [6]	half-life [7]	AUC/dose (Rattus norvegicus [8])	half-life [9]	concentration at 4 h [10]	Cmax [11]	AUC/dose (Rattus norvegicus [12])	half-life [13]	Cmax [14]	clearance [15]	Vd [16]	AUC/dose (Rattus norvegicus [17])	Cmax [18]	bioavailability [19]	half-life [20]
O=c1[nH]c(CN2CC[C@@H](O)C2)nc2c1oc1ccc(Br)cc12	79%	13.2 mL/min/kg	93 µM	2.3 L/kg	3.8 µM·kg·h/mg	7.6 µM	2.7 h	2.9 µM·kg·h/mg	4.7 h	35 µM	3.1 µM									
N[C@@H]1CCN(Cc2nc3c(oc4ccc(Br)cc43)c(=O)[nH]2)C1	13%	56.2 mL/min/kg	6 µM	6.2 L/kg	0.8 µM·kg·h/mg	1.8 µM	1.4 h	0.1 µM·kg·h/mg	1.6 h	5 µM	0.1 µM									
O=c1[nH]c(CN2CCC2)nc2c1oc1ccc(Br)cc12			13 µM							5 µM		1.3 µM·kg·h/mg	1 h	0.8 µM	30.6 mL/min/kg	3.8 L/kg	1.7 µM·kg·h/mg	1.8 µM	77%	1 h
CN1C[C@@H]2C[C@H]1CN2Cc1nc2c(oc3ccc(Br)cc32)c(=O)[nH]1	86%	34.1 mL/min/kg	11 µM	7.1 L/kg	1.2 µM·kg·h/mg	1.5 µM	2.6 h	0.9 µM·kg·h/mg	2.6 h	7 µM	0.4 µM									
O=c1[nH]c(CN2CC(O)C2)nc2c1oc1ccc(Br)cc12			78 µM							22 µM		1.5 µM·kg·h/mg	3.7 h	1.2 µM	13.5 mL/min/kg	2.4 L/kg	2.6 µM·kg·h/mg	3.5 µM	56%	8.4 h
